Results from patent US20260294893A1, “NOVEL RAS INHIBITORS” (KHR Biotec GmbH, priority 2022, published 2026).

Tests used:
KRAS G12V = target: T1, KRAS G12V (Homo sapiens, UniProt P01116, G12V); assay: NanoBit assay for RAS activation (LgBiT-KRAS G12V / SmBiT-CRAF RBD); assay type: cell-based; conditions: 2 h with inhibitor, serum free DMEM
T1 construct: CRAF RBD (1-149) fused to SmBiT; transfected cells
Method: (§1) FIGS. 1a), 1b) and 1c): NanoBit assay for RAS activation (KRAS G12V, NRAS G12V, HRAS G12V)
(§2) N-terminal LgBiT and C-terminal SmBiT construct was purchased from Promega and K, N and HRAS G12V (full length) was cloned with Xho I and Bgl II to LgBit and CRAF Ras binding domain (1-149) was cloned with EcoRI and Bgl II to SmBit. For transfections, 1 μg or 2 μg of (12 well/6 well) plasmids were transfected into cells with 0.5 mM of PEI reagent in 100 μl or 200 μl PBS. One day after transfection, cells were harvested and seeded into 96 well white plates, half area (Greiner). After an additional day the medium was changed to serum free DMEM and the cells were incubated for 2 h with inhibitor. NanoGlo assay was performed according to the manufacturer's instructions. The luminescence was measured using Tecan infinite (Tecan).
(§3) HeLa S3 (DSMZ) were authenticated by Eurofin genomics and cultured in DMEM (10% heat inactivated FBS). NCI-H358 cells were cultured in RPMI-1640 (10% heat inactivated FBS).

NRAS G12V = target: T2, NRAS G12V (Homo sapiens, UniProt P01111, G12V); assay: NanoBit assay for RAS activation (LgBiT-NRAS G12V / SmBiT-CRAF RBD); assay type: cell-based; conditions: 2 h with inhibitor, serum free DMEM
T2 construct: CRAF RBD (1-149) fused to SmBiT; transfected cells (HeLa S3 likely), NanoBiT
T2 sequence (P01111 1-186 G12V): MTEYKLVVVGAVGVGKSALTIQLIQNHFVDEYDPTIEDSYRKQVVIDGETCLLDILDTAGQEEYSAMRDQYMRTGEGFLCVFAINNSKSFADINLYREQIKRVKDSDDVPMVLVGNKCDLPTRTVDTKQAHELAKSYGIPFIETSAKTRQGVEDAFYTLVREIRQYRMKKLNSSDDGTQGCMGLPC
Method: as §1, §2, §3

HRAS G12V = target: T3, HRAS G12V (Homo sapiens, UniProt P01112, G12V); assay: NanoBit assay for RAS activation (LgBiT-HRAS G12V / SmBiT-CRAF RBD); assay type: cell-based; conditions: 2 h with inhibitor, serum free DMEM
T3 construct: CRAF RBD (1-149) fused to SmBiT; transfected cells (HeLa S3 likely), NanoBiT
T3 sequence (P01112 1-186 G12V): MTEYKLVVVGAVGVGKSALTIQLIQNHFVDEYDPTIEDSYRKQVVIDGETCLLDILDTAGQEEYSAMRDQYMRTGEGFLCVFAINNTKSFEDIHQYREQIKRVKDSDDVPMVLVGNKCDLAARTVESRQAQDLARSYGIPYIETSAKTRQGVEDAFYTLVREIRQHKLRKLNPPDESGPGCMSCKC
Method: as §1, §2, §3

NCI-H358 = assay: Soft agar colony formation assay, MTT; assay type: cell-based; conditions: Homo sapiens, 3 independent experiments
Method: (§4) FIGS. 2a), 2b) and 2c): MTT assay for cell growth
(§5) Metabolic activity was quantified using Cell Proliferation Kit I (Roche, Basel, Switzerland). Cells were seeded in 96-well cell culture plates, using 5000 cells per well for NCI-H358 cells. After treatment, 10 μl of MTT solution was added and incubated for 2 h in CO2 incubator. Then 100 μl of solubilization buffer was added to each well and incubated overnight in CO2 incubator. Cell viability, assessed by the amount of metabolized MTT, was quantified by measuring absorbance at 570 nm.
(§6) MTT assay for the growth of different tumour cell lines with RAS mutations in soft agar with Sanguinarine chloride. Shown are data from three independent experiments. NCI-H358, H358, H2122, ASPC-1, HCT-116, T24 and HT1080 cells were used for the soft agar colony formation assay. After the treatment with Sanguinarine chloride, the colonies were stained with MTT and the value was quantified by measuring absorbance at 570 nm after solubilization. The results represent mean±SEM from 3 independent experiments.
as §3

ASPC1 = assay: Soft agar colony formation assay, MTT; assay type: cell-based; conditions: Homo sapiens, 3 independent experiments
Method: as §4, §5, §6

HCT-116 = assay: Soft agar colony formation assay, MTT; assay type: cell-based; conditions: Homo sapiens; HCT-116, soft agar, 3 independent experiments
Method: as §4, §5, §6

HT1080 = assay: Soft agar colony formation assay, MTT; assay type: cell-based; conditions: Homo sapiens, HT-1080, 3 independent experiments
Method: as §4, §5, §6

NCI-H2122 = assay: Soft agar colony formation assay, MTT; assay type: cell-based; conditions: Homo sapiens, 3 independent experiments
Method: as §4, §5, §6

T24 = assay: Soft agar colony formation assay, MTT; assay type: cell-based; conditions: Homo sapiens, T-24, 3 independent experiments
Method: as §4, §5, §6

[1] = tested on: different RAS-isoform addicted cell-lines; assay: Soft agar colony formation assay, MTT; assay type: cell-based
Method: as §4, §5, §6

[2] = tested on: KRAS mutants (G12V, G12C, G12D, G12C/Y96D, G13C, G13D, G13S, Q61K and Q61R); assay: NanoBiT assay for the RAS GTP-loading in HeLa cells transfected with LgBit-KRAS mutants and SmBit-CRAF-RBD; assay type: cell-based; conditions: 2 h, serum-free DMEM
Method: NanoBiT assay for the RAS GTP-loading was performed in HeLa cells transfected with LgBit-KRAS mutants and SmBit-CRAF-RBD. Cells were treated with Sanguinarine chloride for 2 h in serum-free DMEM. After incubation, the substrate for NanoLuc was added, and the luminescence was measured in a multiplate reader. Data were normalized to cells transfected with the indicated mutant and exposed to DMSO for 2 h. DMSO-treated cells were set as 1. The bars represent mean±SEM from 3 independent experiments.
as §3

BaF3 KRAS G12C/Y96D = assay: MTT assay for cell viability; assay type: cell-based; conditions: Mus musculus, 48 h, 3 independent experiments
Method: (§7) FIGS. 4a) and 4b): MTT assay for cell viability in 96 well cell culture plate Cells were treated with Sanguinarine chloride for 48 h and cell viability was evaluated by MTT assay. DMSO-treated cells were set as 1. The results shown are mean±SEM from 3 independent experiments.

BaF3 KRAS G12C = assay: MTT assay for cell viability; assay type: cell-based; conditions: Mus musculus, 48 h, 3 independent experiments
Method: as §7

KRAS dependent cells = assay: MTT assay for cell viability; assay type: cell-based; conditions: 48 h, irrespective of the presence of mutation
Method: as §7

sNF96.2 = assay: RASOpathie-Model; MTT assay for cell viability; assay type: cell-based; conditions: sNF96.2, 48 h
Method: FIG. 5: RASOpathie-Model Sanguinarine chloride; MTT assay for cell viability in 96 well cell culture plate
Cells were treated with Sanguinarine chloride for 48 h and cell viability was evaluated by MTT assay. DMSO-treated cells were set as 1. The results shown are mean±SEM from 3 independent experiments.

[3] = tested on: Na+/K+-ATPase transmembrane protein; conditions: through action on the Na+/K+-ATPase; cited from earlier work

T1 sequence (P01116 1-188 isoform P01116-2 G12V): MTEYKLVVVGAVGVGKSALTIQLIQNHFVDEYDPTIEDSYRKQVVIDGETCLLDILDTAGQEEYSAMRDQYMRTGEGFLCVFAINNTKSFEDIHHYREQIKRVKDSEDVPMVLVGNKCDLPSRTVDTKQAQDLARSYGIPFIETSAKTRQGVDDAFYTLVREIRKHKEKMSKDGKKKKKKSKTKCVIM

Row | inhibition of K-RAS activation (KRAS G12V) | inhibition of N-RAS activation (NRAS G12V) | inhibition of H-RAS activation (HRAS G12V) | IC50 (NCI-H358) [nM] | IC50 (ASPC1) [nM] | IC50 (HCT-116) [nM] | IC50 (HT1080) [nM] | IC50 (NCI-H2122) [nM] | IC50 (T24) [nM] | IC50 (BaF3 KRAS G12C/Y96D) [nM] | IC50 (BaF3 KRAS G12C) [nM] | Structure (SMILES) | growth of RAS-isoform addicted cell-lines [1] | inhibition of different RAS-isoforms (RAS GTP-loading) [2] | inhibition of KRAS dependent cells (KRAS dependent cells) | IC50 (sNF96.2; 3 independent experiments) [nM] | inhibition of RAS protein of RASOpathie (sNF96.2; MTT) | toxicity to animal cells [3]
1 | inhibits | inhibits | inhibits | 1450 | 970 | 530 | 870 | 1550 | 1020 | 1760 | 1190 | C[n+]1cc2c3c(ccc2c2ccc4cc5c(cc4c21)OCO5)OCO3.[Cl-] [Sanguinarine chloride, 13-Methyl-[1,3]benzodioxolo[5,6-c]-1,3-dioxolo[4,5-i]phenanthridinium chloide] | blocks the growth of different RAS-isoform addicted cell-lines and stops the growth of cancer | inhibits different RAS-isoforms | inhibits KRAS dependent cells irrespective of the presence of mutation | 1390 | inhibits RAS protein of RASOpathie | –
2 | – | – | – | – | – | – | – | – | – | – | – | C[n+]1cc2c3c(ccc2c2ccc4cc5c(cc4c21)OCO5)OCO3 [Sanguinarine, 13-Methyl[1,3]benzodioxolo[5,6-c]-1,3-dioxolo[4,5-J]phenanthridinium] | – | – | – | – | – | kills animal cells through its action on the Na+/K+-ATPase transmembrane protein
